These results are taken from patent US20100204136A1, “USE OF A PEPTIDE AS A THERAPEUTIC AGENT” (priority 2007, published 2010).

Each structure is given as a SMILES string.

Data set [1] has as its system MRC-5 cells. As to conditions: human, 6 days.
Method: For cytotoxicity testing, MRC-5 cells were seeded at 2,500 cells/well in 96 well plates using growth medium. […] The following day, peptide was added and tested in duplicates. After a 6 days incubation period, cell viability was measured using CellTiter 96 Solution (Promega). Plates were incubated for additional 4 hours at 37° C. Adhesive plate sealers were used in place of lids, the sealed plates were inverted several times to mix the soluble formazan product and the plate was read spectrophotometrically at 490/560 nm with a Molecular Devices Vmax plate reader.
The subject of data set [2] is HIV-1IIIB. Nature of the data set: HIV-1 antiviral assay (CPE reduction, MTS). In kind it is cell-based. As to conditions: peptide 10 micrograms per ml; 6 days post-infection.
In data set [3] the test system is CEM-SS cells. The experiment in a line: Cytotoxicity in HIV-1 assay (MTS cell viability). As to conditions: peptide 10 micrograms per ml.
Data set [4] deals with HepG2-2.2.15 cells. Nature of the data set: Cytotoxicity in HBV assay (dye uptake cell viability). It is filed as cell-based. As to conditions: test peptide 10 micrograms per ml.

For `Nc1nc(O)c2ncn(COC(CO)CO)c2n1` [Ganciclovir], the “% Cell viability” value in data set [1] amounted to 100%.

For the compound `Cc1cn([C@H]2C[C@H](N=[N+]=[N-])[C@@H](CO)O2)c(=O)[nH]c1=O` [AZT], the “% CPE reduction in HIV-1 infected CEM-SS cells” value in data set [2] was 99%. For the same compound, the “% Cell viability” value in data set [3] is listed as 97%.

With `Nc1ccn([C@@H]2CS[C@H](CO)O2)c(=O)n1` [Compound 3TC], the “% Cell viability” value in data set [4] is reported as 95.8%.
